One assay has as its target GCN2 kinase (Homo sapiens (Human), UniProt Q9P2K8). Nature of the assay: GCN2 Enzyme Inhibition Assay (Transcreener ADP2 fluorescence polarization). In kind it is biochemical. Particulars: 280 μM ATP, 200 μM (RS)7 peptide, 4 nM GCN2, 25° C.; for Ki: Ki(app). The gist of the method:
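Transcreener ADP2 fluorescence polarization detection of ADP from 4 nM GCN2 with (RS)7 substrate in 25 mM Tris-HCl pH 7.5, 50 mM NaCl, 10 mM MgCl2, 1 mM DTT. Compound pre-incubated with enzyme 10 min at 25 °C; reaction started by ATP, run 1 h at 25 °C. IC50 and Ki(app) by tight-binding fit.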

Assay [1] concerns the target intracellular GCN2 (phosphorylation of the GCN2 substrate eIF2α) (Homo sapiens (Human), UniProt Q9P2K8). In words: GCN2 Cellular Inhibition Assay (AlphaScreen SureFire P-eIF2α Ser51, borrelidin-treated U2OS cells). Conditions: 10 μM borrelidin, 1 h. In kind it is cell-based. Put shortly:
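U2OS cells adhered overnight, then given compound (top 40 μM, 4-fold serial dilutions) plus 10 μM borrelidin for 1 h at 37 °C. Lysates assayed for eIF2α phospho-Ser51 by AlphaScreen SureFire; % inhibition versus borrelidin-only wells.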

Setting [2] is: phosphorylated eIF2α Ser51, read-out: GCN2 Biomarker (IC50).

Like-named read-outs stand apart in the source and are kept apart here.

Sequence of intracellular GCN2 (phosphorylation of the GCN2 substrate eIF2α) (Q9P2K8 whole entry): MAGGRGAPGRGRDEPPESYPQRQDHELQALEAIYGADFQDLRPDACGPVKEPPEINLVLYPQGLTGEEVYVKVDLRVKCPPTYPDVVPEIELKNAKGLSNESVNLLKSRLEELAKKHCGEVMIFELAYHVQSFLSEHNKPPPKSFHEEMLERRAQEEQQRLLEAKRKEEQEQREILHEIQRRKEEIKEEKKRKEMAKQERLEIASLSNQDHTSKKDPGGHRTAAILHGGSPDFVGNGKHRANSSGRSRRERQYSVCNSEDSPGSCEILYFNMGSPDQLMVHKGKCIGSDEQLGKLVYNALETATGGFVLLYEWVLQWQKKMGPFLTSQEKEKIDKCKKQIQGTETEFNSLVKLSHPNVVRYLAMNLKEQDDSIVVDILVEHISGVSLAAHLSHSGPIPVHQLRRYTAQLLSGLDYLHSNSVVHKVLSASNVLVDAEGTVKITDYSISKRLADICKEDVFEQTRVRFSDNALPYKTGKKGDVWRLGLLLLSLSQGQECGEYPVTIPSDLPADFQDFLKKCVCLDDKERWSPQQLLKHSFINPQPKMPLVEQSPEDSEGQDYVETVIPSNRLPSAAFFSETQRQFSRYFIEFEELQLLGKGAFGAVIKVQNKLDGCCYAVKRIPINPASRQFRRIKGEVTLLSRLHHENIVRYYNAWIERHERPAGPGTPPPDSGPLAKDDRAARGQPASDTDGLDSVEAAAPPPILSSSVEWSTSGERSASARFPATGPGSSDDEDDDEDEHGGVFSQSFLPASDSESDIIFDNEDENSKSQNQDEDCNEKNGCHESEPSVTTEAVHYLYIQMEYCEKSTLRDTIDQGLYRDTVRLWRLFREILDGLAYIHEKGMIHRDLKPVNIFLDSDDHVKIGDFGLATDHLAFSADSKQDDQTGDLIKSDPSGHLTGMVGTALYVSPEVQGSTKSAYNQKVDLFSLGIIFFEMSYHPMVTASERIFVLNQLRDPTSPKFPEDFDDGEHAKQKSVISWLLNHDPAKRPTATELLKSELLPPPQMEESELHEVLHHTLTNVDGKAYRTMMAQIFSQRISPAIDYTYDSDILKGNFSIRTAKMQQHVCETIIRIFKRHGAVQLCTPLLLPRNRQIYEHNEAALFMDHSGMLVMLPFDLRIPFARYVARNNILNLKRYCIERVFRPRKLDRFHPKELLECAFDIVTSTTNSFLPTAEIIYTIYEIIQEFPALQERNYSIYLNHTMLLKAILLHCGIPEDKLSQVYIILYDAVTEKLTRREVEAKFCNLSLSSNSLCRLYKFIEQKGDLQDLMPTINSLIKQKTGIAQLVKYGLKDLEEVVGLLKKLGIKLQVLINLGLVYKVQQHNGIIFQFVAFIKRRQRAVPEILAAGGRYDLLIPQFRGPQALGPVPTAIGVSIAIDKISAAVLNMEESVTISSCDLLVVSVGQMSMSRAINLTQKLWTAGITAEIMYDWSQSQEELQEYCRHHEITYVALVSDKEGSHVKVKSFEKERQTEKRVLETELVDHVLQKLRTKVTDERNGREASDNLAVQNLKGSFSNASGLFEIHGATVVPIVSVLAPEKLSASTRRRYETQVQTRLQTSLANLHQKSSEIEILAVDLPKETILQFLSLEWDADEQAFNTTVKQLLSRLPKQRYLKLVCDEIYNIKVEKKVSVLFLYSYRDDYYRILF
Sequence of GCN2 kinase (Q9P2K8 whole entry): as above

In the case of `C[C@@H]1CN(c2ccnc(-c3cnc4ccc(C(F)(F)F)cn34)n2)C[C@H](C)N1C(=O)CC1COC1` [I-501, 1-(cis-2,6-dimethyl-4-(2-(6-(trifluoromethyl)imidazo[1,2-a]pyridin-3-yl)pyrimidin-4-yl)piperazin-1-yl)-2-(oxetan-3-yl)ethan-1-one], the results for the IC50 (against GCN2 kinase; in assay [1] (setting [2])) were 0.1 to 1 µM and 0.5 to 5 µM, respectively.

For `COCC1(CN2CCN(c3ccnc(-c4cnc5ccc(C(F)(F)F)cn45)n3)[C@@H](C)[C@@H]2c2cn[nH]c2)CCC1` [I-512, 4-[(2S,3 S)-4-{[1-(methoxymethyl)cyclobutyl]methyl}-2-methyl-3-(1H-pyrazol-4-yl)piperazin-1-yl]-2-[6-(trifluoromethyl)imidazo[1,2-a]pyridin-3-yl]pyrimidine], the IC50 is 0.1 to 1 µM against GCN2 kinase and 0.5 to 5 µM in assay [1] (setting [2]).

With `FC(F)(F)c1ccc2ncc(-c3nccc(N4CCN(Cc5cocn5)C(c5cn[nH]c5)C4)n3)n2c1` (stereo not shown) [I-353, 4-((2-(1H-pyrazol-4-yl)-4-(2-(6-(trifluoromethyl)imidazo[1,2-a]pyridin-3-yl)pyrimidin-4-yl)piperazin-1-yl)methyl)oxazole], the figures for the IC50 (against GCN2 kinase; in assay [1] (setting [2])) were under 0.01 µM and under 0.5 µM, respectively.

On to `CS(=O)(=O)N1CC2(CN(c3ccnc(-c4cnc5ccc(C(F)(F)F)cn45)n3)CCO2)C1` [I-447, 2-(methylsulfonyl)-8-(2-(6-(trifluoromethyl)imidazo[1,2-a]pyridin-3-yl)pyrimidin-4-yl)-5-oxa-2,8-diazaspiro[3.5]nonane], for which the IC50 is 0.01 to 0.1 µM against GCN2 kinase and 0.5 to 5 µM in assay [1] (setting [2]).

Consider `Cc1[nH]ncc1[C@@H]1CN(c2ccnc(-c3cnc4cc(F)c(Cl)cn34)n2)C[C@@H](C)O1` [I-538, (2R,6R)-4-(2-(6-chloro-7-fluoroimidazo[1,2-a]pyridin-3-yl)pyrimidin-4-yl)-2-methyl-6-(5-methyl-1H-pyrazol-4-yl)morpholine], for which the IC50 on GCN2 kinase lay within 0.01 to 0.1 µM; in assay [1] (setting [2]), 0.5 to 5 µM.

Regarding `C[C@H](NS(C)(=O)=O)[C@@H]1CN(c2ccnc(-c3cnc4ccc(C(F)(F)F)cn34)n2)CCO1` [I-407, N—((S)-1-((S)-4-(2-(6-(trifluoromethyl)imidazo[1,2-a]pyridin-3-yl)pyrimidin-4-yl)morpholin-2-yl)ethyl)methanesulfonamide], the IC50 fell in the range of 0.01 to 0.1 µM on GCN2 kinase and 0.5 to 5 µM in assay [1] (setting [2]).

With `NC(=O)[C@H]1C[C@H](O)CN(c2nccc(-c3cnc4ccc(Cl)cn34)n2)C1` [I-316, (3 S,5S)-1-(4-(6-chloroimidazo[1,2-a]pyridin-3-yl)pyrimidin-2-yl)-5-hydroxypiperidine-3-carboxamide], the IC50 against GCN2 kinase is under 0.01 µM; in assay [1] (setting [2]) it was under 0.5 µM.

For the compound `O[C@@H]1C[C@H](O)CN(c2ccnc(-c3cnc4ccc(C(F)(F)F)cn34)n2)C1` [I-238, (3R,5S)-1-(2-(6-(trifluoromethyl)imidazo[1,2-a]pyridin-3-yl)pyrimidin-4-yl)piperidine-3,5-diol], the IC50 against GCN2 kinase was in the range of 0.01 to 0.1 µM; in assay [1] (setting [2]), 0.5 to 5 µM.

As to `O=C1NC[C@@]12CCCN(c1ccnc(-c3cnc4ccc(C(F)(F)F)cn34)n1)C2` [I-295, (R)-6-(2-(6-(trifluoromethyl)imidazo[1,2-a]pyridin-3-yl)pyrimidin-4-yl)-2,6-diazaspiro[3.5]nonan-1-one], the results for the IC50 (against GCN2 kinase; in assay [1] (setting [2])) were 0.01 to 0.1 µM and 0.5 to 5 µM, respectively.

As to `CC(C)(C)OC(=O)N1CC2(C1)OCCN(c1ccnc(-c3cnc4ccc(C(F)(F)F)cn34)n1)C2(C)C` [I-388, tert-butyl 9,9-dimethyl-8-(2-(6-(trifluoromethyl)imidazo[1,2-a]pyridin-3-yl)pyrimidin-4-yl)-5-oxa-2,8-diazaspiro[3.5]nonane-2-carboxylate], the IC50 against GCN2 kinase is 0.1 to 1 µM; in assay [1] (setting [2]) it was over 5 µM.

Take `C[C@H](NS(C)(=O)=O)[C@H]1CN(c2ccnc(-c3cnc4ccc(C(F)(F)F)cn34)n2)CCO1` (stereo in doubt) [I-405, N—((S)-1-((R)-4-(2-(6-(trifluoromethyl)imidazo[1,2-a]pyridin-3-yl)pyrimidin-4-yl)morpholin-2-yl)ethyl)methanesulfonamide]: the IC50 against GCN2 kinase was 0.01 to 0.1 µM; in assay [1] (setting [2]), 0.5 to 5 µM.

Regarding `O=C(O)C1(C2CCCN(c3ccnc(-c4cnc5ccc(Cl)cn45)n3)C2)CC1` (stereo not shown) [I-297, 1-(1-(2-(6-chloroimidazo[1,2-a]pyridin-3-yl)pyrimidin-4-yl)piperidin-3-yl)cyclopropane-1-carboxylic acid], the IC50 is 0.01 to 0.1 µM against GCN2 kinase and 0.5 to 5 µM in assay [1] (setting [2]).

Regarding `CC(O)C(=O)N1CCN(c2ccnc(-c3cnc4ccc(C(F)(F)F)cn34)n2)CC1c1cn[nH]c1` (stereo not shown) [I-420, 1-(2-(1H-pyrazol-4-yl)-4-(2-(6-(trifluoromethyl)imidazo[1,2-a]pyridin-3-yl)pyrimidin-4-yl)piperazin-1-yl)-2-hydroxypropan-1-one], the IC50 against GCN2 kinase lay within 0.01 to 0.1 µM; in assay [1] (setting [2]), 0.5 to 5 µM.

Regarding `FC(F)(F)c1ccc2ncc(-c3nccc(N4CCN(CC5CC56CCOCC6)C(c5cn[nH]c5)C4)n3)n2c1` (stereo not shown) [I-476, 4-[4-({6-oxaspiro[2.5]octan-1-yl}methyl)-3-(1H-pyrazol-4-yl)piperazin-1-yl]-2-[6-(trifluoromethyl)imidazo[1,2-a]pyridin-3-yl]pyrimidine], the IC50 is under 0.01 µM at GCN2 kinase and under 0.5 µM in assay [1] (setting [2]).

`FC(F)(F)c1ccc2ncc(-c3nccc(N4CCN(Cc5cnon5)C(c5cn[nH]c5)C4)n3)n2c1` (stereo not shown) [I-461, 4-{4-[(1,2,5-oxadiazol-3-yl)methyl]-3-(1H-pyrazol-4-yl)piperazin-1-yl}-2-[6-(trifluoromethyl)imidazo[1,2-a]pyridin-3-yl]pyrimidine]: the IC50 at GCN2 kinase is under 0.01 µM; in assay [1] (setting [2]) it was under 0.5 µM.

Consider `FC(F)C1CN(c2ccnc(-c3cnc4ccc(C(F)(F)F)cn34)n2)CCO1` (stereo not shown) [I-225, 2-(difluoromethyl)-4-(2-(6-(trifluoromethyl)imidazo[12-a]pyridin-3-yl)pyrimidin-4-yl)morpholine], for which the IC50 against GCN2 kinase was 0.1 to 1 µM; in assay [1] (setting [2]), 0.5 to 5 µM.

Consider `NC(=O)C1CN(c2ccnc(-c3cnc4ccc(C(F)(F)F)cn34)n2)CCN1CCC(F)(F)F` (stereo not shown) [I-245, 4-(2-(6-(trifluoromethyl)imidazo[1,2-a]pyridin-3-yl)pyrimidin-4-yl)-1-(3,3,3-trifluoropropyl)piperazine-2-carboxamide], for which the values for the IC50 (against GCN2 kinase; in assay [1] (setting [2])) were 0.01 to 0.1 µM and 0.5 to 5 µM, respectively.

With `C[C@@H]1C[C@H](c2cn[nH]c2)CN(c2nccc(-c3cnc4ccc(Cl)cn34)n2)C1` [I-196, 6-chloro-3-(2-((3R,5R)-3-methyl-5-(1H-pyrazol-4-yl)piperidin-1-yl)pyrimidin-4-yl)imidazo[1,2-a]pyridine], the IC50 against GCN2 kinase is under 0.01 µM; in assay [1] (setting [2]), under 0.5 µM.

With `Cc1n[nH]cc1C1CC(F)CN(c2ccnc(-c3cnc4ccc(C(F)(F)F)cn34)n2)C1` (stereo not shown) [I-357, 3-(4-(3-fluoro-5-(3-methyl-1H-pyrazol-4-yl)piperidin-1-yl)pyrimidin-2-yl)-6-(trifluoromethyl)imidazo[1,2-a]pyridine], the results for the IC50 (against GCN2 kinase; in assay [1] (setting [2])) were 0.01 to 0.1 µM and under 0.5 µM, respectively.

In the case of `CN(CC1CCCN(c2ccnc(-c3cnc4ccc(Cl)cn34)n2)C1)S(C)(=O)=O` (stereo not shown) [I-283, N-((1-(2-(6-chloroimidazo[1,2-a]pyridin-3-yl)pyrimidin-4-yl)piperidin-3-yl)methyl)-N-methylmethanesulfonamide], the IC50 was in the range of 0.01 to 0.1 µM against GCN2 kinase and 0.5 to 5 µM in assay [1] (setting [2]).

Regarding `FC(F)(F)c1ccc2ncc(-c3nccc(N4CCN(C5CC6(COC6)C5)[C@@H](c5cn[nH]c5)C4)n3)n2c1` [I-502, (S)-3-(4-(3-(1H-pyrazol-4-yl)-4-(2-oxaspiro[3.3]heptan-6-yl)piperazin-1-yl)pyrimidin-2-yl)-6-(trifluoromethyl)imidazo[1,2-a]pyridine], the IC50 is 0.01 to 0.1 µM on GCN2 kinase and under 0.5 µM in assay [1] (setting [2]).

`O=C(Nc1cn[nH]c1)[C@H]1CCCN(c2ccnc(-c3cnc4cc(F)c(Cl)cn34)n2)C1` [I-58, (S)-1-[2-(6-Chloro-7-fluoro-imidazo[1,2-a]pyridine-3-yl)-pyrimidin-4-yl]-piperidine-3-carboxylic acid (1H-pyrazol-4-yl)-amide] displayed a Ki on GCN2 kinase of 0.01 to 0.1 µM. The IC50 in assay [1] (GCN2 Biomarker (IC50), phosphorylated eIF2α Ser51) is 0.5 to 5 µM.

The compound `CC1CN(c2ccnc(-c3cnc4ccc(Cl)cn34)n2)C(C)C(c2cn[nH]c2)N1` (stereo not shown) [I-36, 6-chloro-3-[4-[2,5-dimethyl-3-(1H-pyrazol-4-yl)piperazin-1-yl]pyrimidin-2-yl]imidazo[1,2-a]pyridine] showed a Ki at GCN2 kinase of under 0.01 µM. Besides, the IC50 in assay [1] (setting [2]) is under 0.5 µM.

At GCN2 kinase, `FC(F)(F)c1ccc2ncc(-c3nccc(N4CCOC(c5cn[nH]c5)C4)n3)n2c1` (stereo not shown) [I-45, 2-(1H-Pyrazol-4-yl)-4-(2-(6-(trifluoromethyl)imidazo[1,2-a]pyridin-3-yl)pyrimidin-4-yl)morpholine] returned a Ki of under 0.01 µM. For the same compound, the IC50 in assay [1] (setting [2]) was under 0.5 µM.

Consider `CC1(F)CCCN(c2ccnc(-c3cnc4ccc(C(F)(F)F)cn34)n2)C1` (stereo not shown) [I-226, 3-(4-(3-fluoro-3-methylpiperidin-1-yl)pyrimidin-2-yl)-6-(trifluoromethyl)imidazo[1,2-a]pyridine], for which the IC50 lay in the range of 0.1 to 1 µM on GCN2 kinase and 0.5 to 5 µM in assay [1] (setting [2]).

Turning to `CC(NS(C)(=O)=O)C1CN(c2ccnc(-c3cnc4ccc(C(F)(F)F)cn34)n2)CCO1` (stereo not shown) [I-327, N-(1-(4-(2-(6-(trifluoromethyl)imidazo[1,2-a]pyridin-3-yl)pyrimidin-4-yl)morpholin-2-yl)ethyl)methanesulfonamide], the IC50 fell in the range of 0.01 to 0.1 µM at GCN2 kinase and 0.5 to 5 µM in assay [1] (setting [2]).
